Legend:
[1] = system: Glomerella lacenarium (Colletotrichum lacenarium); assay: Fungicidal activity, liquid culture, cucumber preventative (anthracnose); format: cell-based; details: 20 ppm in the applied formulation, liquid culture in PDB, inhibition of growth measured photometrically 3 to 4 days after application, compared to untreated control, read-out: disease control
In short: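 Conidia from cryogenic storage were mixed into potato dextrose broth and added to DMSO solutions of test compound in microtiter plates. Plates were incubated at 24° C. and growth inhibition read photometrically 3 to 4 days after application, as percent antifungal activity versus untreated check.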

[2] = system: Puccinia recondita f. Sp. Tritici; assay: Fungicidal activity, wheat leaf disc curative (brown rust); format: in vivo; details: foliar, 200 ppm in the applied formulation, wheat leaf segments cv. Kanzler, curative (applied 1 day after inoculation), compared to untreated control, 6 to 8 days after application, read-out: disease control
In short: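 Wheat cv. Kanzler leaf segments on agar were inoculated with fungal spore suspension, held dark at 19° C and 75% RH, then sprayed 1 day later with formulated compound diluted in water. Incubation continued at 19° C, 75% RH, 12 h light/12 h dark; percent disease control versus untreated was scored 6 to 8 days after application.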

[3] = system: Puccinia recondita f. Sp. Tritici; assay: Fungicidal activity, wheat leaf disc preventative (brown rust); format: in vivo; details: foliar, 200 ppm in the applied formulation, wheat leaf segments cv. Kanzler, compared to untreated control, 7 to 9 days after application, read-out: disease control
In short: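 Wheat cv. Kanzler leaf segments on agar were sprayed with formulated compound in water, then inoculated with spores 1 day later. Incubated at 19° C, 75% rh, 12 h light/12 h dark; percent disease control versus untreated scored 7 to 9 days after application.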

CC(C)N(Cc1ccc(-c2noc(C(F)(F)F)n2)s1)C(=O)C1(C)COC1 [Compound 5.32, N-isopropyl-3-methyl-N-[[5-[5-(trifluoromethyl)-1,2,4-oxadiazol-3-yl]-2-thienyl]methyl]oxetane-3-carboxamide]
≥ 80%: inhibition of growth at 20 ppm [1] | pest or weed control at 200 ppm [2] | pest or weed control at 200 ppm [3]

CCC(=O)C(=O)N(Cc1ccc(-c2noc(C(F)(F)F)n2)s1)C1CC1 [Compound 6.56, N-cyclopropyl-2-oxo-N-[[5-[5-(trifluoromethyl)-1,2,4-oxadiazol-3-yl]-2-thienyl]methyl]butanamide]
≥ 80%: inhibition of growth at 20 ppm [1] | pest or weed control at 200 ppm [2] | pest or weed control at 200 ppm [3]

CN(CC#N)C(=O)N(Cc1ccc(-c2noc(C(F)(F)F)n2)s1)C1CC1 [Compound 4.86, 1-(cyanomethyl)-3-cyclopropyl-1-methyl-3-[[5-[5-(trifluoromethyl)-1,2,4-oxadiazol-3-yl]-2-thienyl]methyl]urea]
≥ 80%: inhibition of growth at 20 ppm [1] | pest or weed control at 200 ppm [2] | pest or weed control at 200 ppm [3]

CCN(Cc1ccc(-c2noc(C(F)(F)F)n2)s1)C(=O)C(=O)c1ccccc1 [Compound 6.40, N-ethyl-2-oxo-2-phenyl-N-[[5-[5-(trifluoromethyl)-1,2,4-oxadiazol-3-yl]-2-thienyl]methyl]acetamide]
≥ 80%: inhibition of growth at 20 ppm [1] | pest or weed control at 200 ppm [2] | pest or weed control at 200 ppm [3]

CCCN(CC1CC1)C(=O)N(Cc1ccc(-c2noc(C(F)(F)F)n2)s1)OC [Compound 1.60, 1-(cyclopropylmethyl)-3-methoxy-1-propyl-3-[[5-[5-(trifluoromethyl)-1,2,4-oxadiazol-3-yl]-2-thienyl]methyl]urea]
≥ 80%: inhibition of growth at 20 ppm [1] | pest or weed control at 200 ppm [2] | pest or weed control at 200 ppm [3]

CCN(Cc1ccc(-c2noc(C(F)(F)F)n2)s1)C(=O)C1CCOC1 (stereo not drawn) [Compound 5.10, N-ethyl-N-[[5-[5-(trifluoromethyl)-1,2,4-oxadiazol-3-yl]-2-thienyl]methyl]tetrahydrofuran-3-carboxamide]
≥ 80%: inhibition of growth at 20 ppm [1] | pest or weed control at 200 ppm [2] | pest or weed control at 200 ppm [3]

CON(C)C(=O)N(Cc1ccc(-c2noc(C(F)(F)F)n2)s1)OC [Compound 1.6, 1,3-dimethoxy-1-methyl-3-[[5-[5-(trifluoromethyl)-1,2,4-oxadiazol-3-yl]-2-thienyl]methyl]urea]
≥ 80%: inhibition of growth at 20 ppm [1] | pest or weed control at 200 ppm [2] | pest or weed control at 200 ppm [3]

CN(Cc1ccc(-c2noc(C(F)(F)F)n2)s1)C(=O)C(=O)c1cccs1 [Compound 6.52, N-methyl-2-oxo-2-(2-thienyl)-N-[[5-[5-(trifluoromethyl)-1,2,4-oxadiazol-3-yl]-2-thienyl]methyl]acetamide]
≥ 80%: inhibition of growth at 20 ppm [1] | pest or weed control at 200 ppm [2] | pest or weed control at 200 ppm [3]

CCOC(=O)N(Cc1ccc(-c2noc(C(F)(F)F)n2)s1)OC [Compound 1.28, ethyl N-methoxy-N-[[5-[5-(trifluoromethyl)-1,2,4-oxadiazol-3-yl]-2-thienyl]methyl]carbamate]
≥ 80%: inhibition of growth at 20 ppm [1] | pest or weed control at 200 ppm [2] | pest or weed control at 200 ppm [3]

CC(=O)C(=O)N(C)Cc1ccc(-c2noc(C(F)(F)F)n2)s1 [Compound 6.8, N-methyl-2-oxo-N-[[5-[5-(trifluoromethyl)-1,2,4-oxadiazol-3-yl]-2-thienyl]methyl]propanamide]
≥ 80%: inhibition of growth at 20 ppm [1] | pest or weed control at 200 ppm [2] | pest or weed control at 200 ppm [3]

CC(C)N(Cc1ccc(-c2noc(C(F)(F)F)n2)s1)C(=O)N(C)CC#N [Compound 4.82, 1-(cyanomethyl)-3-isopropyl-1-methyl-3-[[5-[5-(trifluoromethyl)-1,2,4-oxadiazol-3-yl]-2-thienyl]methyl]urea]
≥ 80%: inhibition of growth at 20 ppm [1] | pest or weed control at 200 ppm [2] | pest or weed control at 200 ppm [3]

COCCNC(=O)N(Cc1ccc(-c2noc(C(F)(F)F)n2)s1)C(C)C [Compound 4.84, 1-isopropyl-3-(2-methoxyethyl)-1-[[5-[5-(trifluoromethyl)-1,2,4-oxadiazol-3-yl]-2-thienyl]methyl]urea]
≥ 80%: inhibition of growth at 20 ppm [1] | pest or weed control at 200 ppm [2] | pest or weed control at 200 ppm [3]

O=C(C1CCOC1)N(Cc1ccc(-c2noc(C(F)(F)F)n2)s1)C1CC1 (stereo not drawn) [Compound 5.37, N-cyclopropyl-N-[[5-[5-(trifluoromethyl)-1,2,4-oxadiazol-3-yl]-2-thienyl]methyl]tetrahydrofuran-3-carboxamide]
≥ 80%: inhibition of growth at 20 ppm [1] | pest or weed control at 200 ppm [2] | pest or weed control at 200 ppm [3]

CCN(CC)C(=O)N(Cc1ccc(-c2noc(C(F)(F)F)n2)s1)C1CC1 [Compound 4.90, 1-cyclopropyl-3,3-diethyl-1-[[5-[5-(trifluoromethyl)-1,2,4-oxadiazol-3-yl]-2-thienyl]methyl]urea]
≥ 80%: inhibition of growth at 20 ppm [1] | pest or weed control at 200 ppm [2] | pest or weed control at 200 ppm [3]

CCOC(=O)N(Cc1ccc(-c2noc(C(F)(F)F)n2)s1)C1CC1 [Compound 4.4, ethyl N-cyclopropyl-N-[[5-[5-(trifluoromethyl)-1,2,4-oxadiazol-3-yl]-2-thienyl]methyl]carbamate]
≥ 80%: inhibition of growth at 20 ppm [1] | pest or weed control at 200 ppm [2] | pest or weed control at 200 ppm [3]

CC(=O)NCC(=O)N(Cc1ccc(-c2noc(C(F)(F)F)n2)s1)C(C)C [Compound 4.43, 2-acetamido-N-isopropyl-N-[[5-[5-(trifluoromethyl)-1,2,4-oxadiazol-3-yl]-2-thienyl]methyl]acetamide]
≥ 80%: inhibition of growth at 20 ppm [1] | pest or weed control at 200 ppm [2] | pest or weed control at 200 ppm [3]

CC1(C(=O)N(Cc2ccc(-c3noc(C(F)(F)F)n3)s2)C2CC2)COC1 [Compound 5.41, N-cyclopropyl-3-methyl-N-[[5-[5-(trifluoromethyl)-1,2,4-oxadiazol-3-yl]-2-thienyl]methyl]oxetane-3-carboxamide]
≥ 80%: inhibition of growth at 20 ppm [1] | pest or weed control at 200 ppm [2] | pest or weed control at 200 ppm [3]

CC1(C(=O)N(Cc2ccc(-c3noc(C(F)(F)F)n3)s2)C2CC2)CC1 [Compound 5.39, N-cyclopropyl-1-methyl-N-[[5-[5-(trifluoromethyl)-1,2,4-oxadiazol-3-yl]-2-thienyl]methyl]cyclopropanecarboxamide]
≥ 80%: inhibition of growth at 20 ppm [1] | pest or weed control at 200 ppm [2] | pest or weed control at 200 ppm [3]

CCCN(CC1CC1)C(=O)N(CC)Cc1ccc(-c2noc(C(F)(F)F)n2)s1 [Compound 5.53, 1-(cyclopropylmethyl)-3-ethyl-1-propyl-3-[[5-[5-(trifluoromethyl)-1,2,4-oxadiazol-3-yl]-2-thienyl]methyl]urea]
≥ 80%: inhibition of growth at 20 ppm [1] | pest or weed control at 200 ppm [2] | pest or weed control at 200 ppm [3]

CCCC(=O)N(Cc1ccc(-c2noc(C(F)(F)F)n2)s1)C(C)C [Compound 4.44, N-isopropyl-N-[[5-[5-(trifluoromethyl)-1,2,4-oxadiazol-3-yl]-2-thienyl]methyl]butanamide]
≥ 80%: inhibition of growth at 20 ppm [1] | pest or weed control at 200 ppm [2] | pest or weed control at 200 ppm [3]

CCN(Cc1ccc(-c2noc(C(F)(F)F)n2)s1)C(=O)C1CCC1 [Compound 5.11, N-ethyl-N-[[5-[5-(trifluoromethyl)-1,2,4-oxadiazol-3-yl]-2-thienyl]methyl]cyclobutanecarboxamide]
≥ 80%: inhibition of growth at 20 ppm [1] | pest or weed control at 200 ppm [2] | pest or weed control at 200 ppm [3]

COCCN(CCOC)C(=O)N(C)Cc1ccc(-c2noc(C(F)(F)F)n2)s1 [Compound 4.80, 1,1-bis(2-methoxyethyl)-3-methyl-3-[[5-[5-(trifluoromethyl)-1,2,4-oxadiazol-3-yl]-2-thienyl]methyl]urea]
≥ 80%: inhibition of growth at 20 ppm [1] | pest or weed control at 200 ppm [2] | pest or weed control at 200 ppm [3]

COCCCC(=O)N(Cc1ccc(-c2noc(C(F)(F)F)n2)s1)C(C)C [Compound 4.48, N-isopropyl-4-methoxy-N-[[5-[5-(trifluoromethyl)-1,2,4-oxadiazol-3-yl]-2-thienyl]methyl]butanamide]
≥ 80%: inhibition of growth at 20 ppm [1] | pest or weed control at 200 ppm [2] | pest or weed control at 200 ppm [3]

CN(Cc1ccc(-c2noc(C(F)(F)F)n2)s1)C(=O)N(CC(F)F)C1CC1 [Compound 5.54, 1-cyclopropyl-1-(2,2-difluoroethyl)-3-methyl-3-[[5-[5-(trifluoromethyl)-1,2,4-oxadiazol-3-yl]-2-thienyl]methyl]urea]
≥ 80%: inhibition of growth at 20 ppm [1] | pest or weed control at 200 ppm [2] | pest or weed control at 200 ppm [3]

CCN(Cc1ccc(-c2noc(C(F)(F)F)n2)s1)C(=O)N(CC(F)F)C1CC1 [Compound 5.51, 1-cyclopropyl-1-(2,2-difluoroethyl)-3-ethyl-3-[[5-[5-(trifluoromethyl)-1,2,4-oxadiazol-3-yl]-2-thienyl]methyl]urea]
≥ 80%: inhibition of growth at 20 ppm [1] | pest or weed control at 200 ppm [2] | pest or weed control at 200 ppm [3]

CON(Cc1ccc(-c2noc(C(F)(F)F)n2)s1)C(=O)N(CC(F)F)C1CC1 [Compound 1.59, 1-cyclopropyl-1-(2,2-difluoroethyl)-3-methoxy-3-[[5-[5-(trifluoromethyl)-1,2,4-oxadiazol-3-yl]-2-thienyl]methyl]urea]
≥ 80%: inhibition of growth at 20 ppm [1] | pest or weed control at 200 ppm [2] | pest or weed control at 200 ppm [3]
